≈ marks a conversion by molar mass, not a printed value. Where “and” joins values, the source holds several entries; their conditions need not be identical. Equal entries are not always repeated.
Tests used:
Ustilaginoidea virens [1] = test: In vitro activity of pydiflumetofen and other active ingredients against rice false smut, mycelial growth method (Example 2); assay type: cell-based; conditions: for EC50: mycelial growth, same protocol as Example 1
Protocol: (§1) Ustilaginoidea virens, the pathogens that cause rice false smut, were isolated from infected rice tissues and stored at 4° C. Pathogen was applied to the PSA plate and incubated at 28° C. for 7 days. Mycelial plugs at the edge of the colony were prepared by hole puncher with a diameter of 5 mm. Pydiflumetofen was dissolved into dimethyl sulfoxide (DMSO) to get 4×10^4 μg/mL for stock solution. Mixing PSA culture medium with stock solution of pydiflumetofen to get different series of concentration: 0, 0.0005, 0.0010, 0.0025, 0.0040, 0.0055, and 0.007 μg/mL. Using the mycelial growth method, the mycelial plugs were shifted to the center of PSA medium plates containing different pydiflumetofen concentrations. […] EC50 values were determined by the fitted regression line of the log-transformed percentage inhibition plotted against the log-transformed fungicide concentration.
Using the same protocol as for Example 1 (above), the activity of pydiflumetofen against rice false smut was compared to that of other fungicidal active ingredients.
EC50 values were determined by the fitted regression line of the log-transformed percentage inhibition plotted against the log-transformed fungicide concentration. The lower the EC50 value, the higher the activity.

Ustilaginoidea virens [2] = test: In vitro activity against rice false smut by mycelial growth method (Example 1); assay type: cell-based; conditions: for Average mycelium growth diameter: untreated 35.63; for Mycelium diameter, Average: average of 8, untreated 40.63; for Mycelium diameter: individual replicates 1-8
Protocol: Example 1-In Vitro Activity of Pydiflumetofen Against Rice False Smut (Caused by Ustilaginoidea Virens) by Mycelial Growth Method
as §1
As stated above, EC50 values were determined by the fitted regression line of the log-transformed percentage inhibition plotted against the log-transformed fungicide concentration. The lower the EC50 value, the higher the activity.

rice false smut [3] = test: Field trial, efficacy against rice false smut at 77 days after application (Example 4); assay type: in vivo, Ustilaginoidea virens; conditions: 75 gai/ha
Excerpt: (§2) • Application Method: Foliar Spray • Water Volume: 450 L/ha • Number of Applications: 1 • Application Timing: BBCH 45-47

rice false smut [4] = test: Field trial, efficacy against rice false smut at 38 days after application (Example 3); assay type: in vivo, Ustilaginoidea virens; conditions: 60-75 gai/ha
Excerpt: as §2
A scale/index of 0 to 9 was used to define the level of disease severity, wherein 0 represents a healthy plant and 9 represents high levels/severe symptoms of disease. Each plant was graded on this 0 to 9 scale and the Disease Index calculated using the following formula:
Disease Index (DI)=[sum(class frequency×scpre of rating class)]/[(total number of plants)×(maximal disease index)]×100.

[5] = Ustilaginoidea virens, read-out: EC50

CC(C1CC1)C(O)(Cn1cncn1)c1ccc(Cl)cc1 (stereo not drawn) [Cyproconazole]
EC50 (Ustilaginoidea virens [1]; [5]): 0.0387 µg/mL (≈ 0.133 µM)

CC1(C)CCC(Cc2ccc(Cl)cc2)C1(O)Cn1cncn1 (stereo not drawn) [Metconazole]
EC50 (Ustilaginoidea virens [1]; [5]): 0.041 µg/mL (≈ 0.128 µM)

OC(Cc1ccccc1Cl)(Cn1nc[nH]c1=S)C1(Cl)CC1 (stereo not drawn) [Prothioconazole]
EC50 (Ustilaginoidea virens [1]; [5]): 3.11 µg/mL (≈ 9.03 µM)

CC(C)(C)C(O)(CCc1ccc(Cl)cc1)Cn1cncn1 (stereo not drawn) [Tebuconazole]
EC50 (Ustilaginoidea virens [1]; [5]): 0.0761 µg/mL (≈ 0.247 µM)

Epoxiconazole
EC50 (Ustilaginoidea virens [1]): 0.0086 ppm

CON(C(=O)c1cn(C)nc1C(F)F)C(C)Cc1c(Cl)cc(Cl)cc1Cl (stereo not drawn) [Pydiflumetofen, 3-(difluoromethyl)-N-methoxy-1-methyl-N-[1-methyl-2-(2,4,6-trichloro-phenyl)ethyl]-1H-pyrazole-4-carboxamide]
Average mycelium growth diameter (Ustilaginoidea virens [2]; 0.0005 μg/mL, 28° C., 14 days): 33.13 mm
Mycelium diameter, Average (Ustilaginoidea virens [2]; 0.0005 μg/mL, 28° C., 14 days): 38.13 mm
Mycelium diameter (Ustilaginoidea virens [2]; 0.0005 μg/mL, 28° C., 14 days): 37 mm and 38 mm (5×) and 39 mm (2×)
Average mycelium growth diameter (Ustilaginoidea virens [2]; 0.0010 μg/mL, 28° C., 14 days): 28.63 mm
Mycelium diameter, Average (Ustilaginoidea virens [2]; 0.0010 μg/mL, 28° C., 14 days): 33.63 mm
Mycelium diameter (Ustilaginoidea virens [2]; 0.0010 μg/mL, 28° C., 14 days): 32 mm (2×) and 34 mm (2×) and 33 mm (2×) and 35 mm and 36 mm
Average mycelium growth diameter (Ustilaginoidea virens [2]; 0.0025 μg/mL, 28° C., 14 days): 20.75 mm
Mycelium diameter, Average (Ustilaginoidea virens [2]; 0.0025 μg/mL, 28° C., 14 days): 25.75 mm
Mycelium diameter (Ustilaginoidea virens [2]; 0.0025 μg/mL, 28° C., 14 days): 25 mm (4×) and 26 mm (3×) and 28 mm
Average mycelium growth diameter (Ustilaginoidea virens [2]; 0.0040 μg/mL, 28° C., 14 days): 19.50 mm
Mycelium diameter, Average (Ustilaginoidea virens [2]; 0.0040 μg/mL, 28° C., 14 days): 24.50 mm
Mycelium diameter (Ustilaginoidea virens [2]; 0.0040 μg/mL, 28° C., 14 days): 24 mm (4×) and 25 mm (4×)
Average mycelium growth diameter (Ustilaginoidea virens [2]; 0.0055 μg/mL, 28° C., 14 days): 17.75 mm
Mycelium diameter, Average (Ustilaginoidea virens [2]; 0.0055 μg/mL, 28° C., 14 days): 22.75 mm
Mycelium diameter (Ustilaginoidea virens [2]; 0.0055 μg/mL, 28° C., 14 days): 22 mm (3×) and 23 mm (4×) and 24 mm
Average mycelium growth diameter (Ustilaginoidea virens [2]; 0.0070 μg/mL, 28° C., 14 days): 7.75 mm
Mycelium diameter, Average (Ustilaginoidea virens [2]; 0.0070 μg/mL, 28° C., 14 days): 12.75 mm
Mycelium diameter (Ustilaginoidea virens [2]; 0.0070 μg/mL, 28° C., 14 days): 13 mm (6×) and 12 mm (2×)
inhibition at 0.0005 µg/mL (Ustilaginoidea virens [2]; Ustilaginoidea virens, 336 h, 0.0005 μg/mL, 28° C., 14 days): 7.02%
inhibition at 0.001 µg/mL (Ustilaginoidea virens [2]; Ustilaginoidea virens, 336 h, 0.0010 μg/mL, 28° C., 14 days): 19.6%
inhibition at 0.0025 µg/mL (Ustilaginoidea virens [2]; Ustilaginoidea virens, 336 h, 0.0025 μg/mL, 28° C., 14 days): 41.8%
inhibition at 0.004 µg/mL (Ustilaginoidea virens [2]; Ustilaginoidea virens, 336 h, 0.0040 μg/mL, 28° C., 14 days): 45.3%
inhibition at 0.0055 µg/mL (Ustilaginoidea virens [2]; Ustilaginoidea virens, 336 h, 0.0055 μg/mL, 28° C., 14 days): 50.2%
inhibition at 0.007 µg/mL (Ustilaginoidea virens [2]; Ustilaginoidea virens, 336 h, 0.0070 μg/mL, 28° C., 14 days): 78.2%
EC50 (Ustilaginoidea virens [2]; Ustilaginoidea virens, 336 h, mycelial growth, PSA, 28° C., 14 days): 0.0037 µg/mL (≈ 0.00867 µM)
activity against Ustilaginoidea virens (in words) (Ustilaginoidea virens [2]; mycelial growth): very high activity
EC50 (Ustilaginoidea virens [1]; [5]): 0.0045 µg/mL (≈ 0.0105 µM)
activity against Ustilaginoidea virens (in words) (Ustilaginoidea virens [1]; compared to fungicides commonly used to treat rice false smut): very high activity
control against rice false smut in the field (in words) (rice false smut [3]): good control
control against rice false smut in the field (in words) (rice false smut [4]): good control

CCCC1COC(Cn2cncn2)(c2ccc(Cl)cc2Cl)O1 (stereo not drawn) [Propiconazole]
EC50 (Ustilaginoidea virens [1]; [5]): 0.0205 µg/mL (≈ 0.0599 µM)
